Calls of active or inactive are those of the source. The calls are words filed in the database; no cut-off is given here.

Usually GI50 stands for the concentration giving 50% growth inhibition. Higher therefore signals lower sensitivity of the cells.

Data set [1] has as its system HepG2. Kind of data set: Growth inhibition of human HepG2 cells after 72 hrs by SRB assay. It counts as functional. The note with it: HepG2, 72 h. (The SRB assay estimates cell density from bound dye.)
Data set [2] is described as follows: Growth inhibition of porcine primary hepatocytes after 72 hrs by SRB assay. In kind it is cell-based, Sus scrofa, Hepatocyte. The settings on record: pig.
For data set [3], the system named is HepG2. In words: Induction of cell cycle arrest in human HepG2 cells assessed as increase in DNA content at G2/M phase at 4.1 uM after 72 hrs by propidium iodide staining-based flow cytometric analysis. In kind it is functional. Background: In flow cytometry, cells or beads pass a laser one at a time.
The test system of data set [4] is HepG2. Kind of data set: Induction of cell cycle arrest in human HepG2 cells assessed as decrease in DNA content at S phase at 4.1 uM after 72 hrs by propidium iodide staining-based flow cytometric analysis. It counts as functional.
In data set [5] the test system is HepG2. In words: Induction of cell cycle arrest in human HepG2 cells assessed as increase in sub-G1 peak at 4.1 uM after 72 hrs by propidium iodide staining-based flow cytometric analysis. It counts as functional.

Turning to `COC(=O)c1sc2cc(-c3ccc4ccccc4c3)cnc2c1N`, the 50% growth inhibitory concentration (GI50) in data set [1] is more than 125 µM. The compound further gave a GI50 at 72 h in data set [2] of 102 µM.

For `COC(=O)c1sc2cc(-c3cncc4ccccc34)cnc2c1N`, the concentration for 50% growth inhibition (GI50) in data set [1] is more than 125 µM. In addition, it took 25.4 µM to inhibit growth in data set [2] by half (GI50 at 72 h).

Compound `COC(=O)c1sc2cc(-c3cnc(OC)nc3OC)cnc2c1N` registered a concentration for 50% growth inhibition (GI50) in data set [1] of 23.8 µM. This compound also returned a concentration for 50% growth inhibition (GI50) at 72 h in data set [2] of 4.4 µM.

The compound `COC(=O)c1sc2cc(-c3ccc(OC)nc3)cnc2c1N` gave a GI50 in data set [1] of more than 125 µM. For the same compound, in data set [2], the 50% growth inhibitory concentration (GI50) at 72 h is more than 125 µM.

`COC(=O)c1sc2cc(-c3ccc(C(F)(F)F)cc3)cnc2c1N` displayed a GI50 in data set [1] of more than 125 µM. In addition, the concentration for 50% growth inhibition (GI50) at 72 h in data set [2] is more than 125 µM.

Take `COC(=O)c1sc2cc(-c3ccc(-c4cccs4)s3)cnc2c1N`: halving of growth in data set [1] (GI50) required 70.6 µM. In data set [2], this compound registered a GI50 at 72 h of 106 µM.

For `COC(=O)c1sc2cc(-c3ccc(C(C)=O)cc3)cnc2c1N`, in data set [1], the GI50 was more than 125 µM. For the same compound, the GI50 at 72 h in data set [2] was more than 125 µM.

For `COC(=O)c1sc2cc(C#Cc3ccc(N)cc3)cnc2c1N`, in data set [1], growth was halved (GI50) at 25.9 µM. This compound showed a concentration for 50% growth inhibition (GI50) at 72 h in data set [2] of more than 125 µM.

Take `COC(=O)c1sc2cc(-c3ccc(F)nc3)cnc2c1N`: in data set [1], the GI50 is more than 125 µM. In addition, in data set [2], it took 47 µM to inhibit growth by half (GI50 at 72 h).

`COC(=O)c1sc2cc(-c3cnn(C)c3)cnc2c1N`: the concentration for 50% growth inhibition (GI50) in data set [1] is more than 125 µM. The compound also yielded a 50% growth inhibitory concentration (GI50) at 72 h in data set [2] of more than 125 µM.

As for `COC(=O)c1sc2cc(-c3ccsc3)cnc2c1N`, the 50% growth inhibitory concentration (GI50) in data set [1] is more than 125 µM. The GI50 at 72 h in data set [2] was found to be 25.2 µM.

Consider `COC(=O)c1sc2cc(-c3ccccc3N)cnc2c1N`, for which the 50% growth inhibitory concentration (GI50) in data set [1] was 21.7 µM. The same compound came in with a GI50 at 72 h in data set [2] of more than 125 µM.

In turn, `COC(=O)c1sc2cc(C#Cc3ccc(OC)cc3)cnc2c1N` returned a GI50 in data set [1] of more than 125 µM. In data set [2], halving of growth (GI50 at 72 h) required 76.5 µM.

`COC(=O)c1sc2cc(C#Cc3ccc(N(C)C)cc3)cnc2c1N` had a concentration for 50% growth inhibition (GI50) in data set [1] of 67.6 µM. In addition, in data set [2], the GI50 at 72 h was more than 125 µM.

`COC(=O)c1sc2cc(-c3ccc4ncccc4c3)cnc2c1N` registered a GI50 in data set [1] of more than 125 µM. The same compound registered a 50% growth inhibitory concentration (GI50) at 72 h in data set [2] of 14.1 µM.

`COC(=O)c1sc2cc(C#Cc3cccc(OC)c3)cnc2c1N` showed a GI50 in data set [1] of more than 125 µM. This compound also yielded a GI50 at 72 h in data set [2] of more than 125 µM.

In the case of `COC(=O)c1sc2cc(-c3ccc4c(ccn4C)c3)cnc2c1N`, in data set [1], it took 117 µM to inhibit growth by half (GI50). In data set [2], this compound registered a GI50 at 72 h of 106 µM.

In data set [1], `COC(=O)c1sc2cc(C#Cc3ccccc3F)cnc2c1N` returned a GI50 of more than 125 µM. This compound also returned a GI50 at 72 h in data set [2] of more than 125 µM.

On to `COC(=O)c1sc2cc(C#Cc3cccnc3)cnc2c1N`, for which the 50% growth inhibitory concentration (GI50) in data set [1] is more than 125 µM. The 50% growth inhibitory concentration (GI50) at 72 h in data set [2] is more than 125 µM.

Turning to `COC(=O)c1sc2cc(C#Cc3ccc(F)cc3)cnc2c1N`, the GI50 in data set [1] was more than 125 µM. The compound also gave a GI50 at 72 h in data set [2] of more than 125 µM.

As to `COC(=O)c1sc2cc(-c3ccoc3)cnc2c1N`, the GI50 in data set [1] is more than 125 µM. In data set [2], this compound came in with a GI50 at 72 h of more than 125 µM.

In data set [1], `COC(=O)c1sc2cc(-c3cccnc3)cnc2c1N` registered a GI50 of more than 125 µM. The compound further yielded a 50% growth inhibitory concentration (GI50) at 72 h in data set [2] of more than 125 µM.

In data set [1], `COC(=O)c1sc2cc(C#Cc3ccccc3)cnc2c1N` returned a concentration for 50% growth inhibition (GI50) of more than 125 µM. The compound also gave a 50% growth inhibitory concentration (GI50) at 72 h in data set [2] of 95.7 µM.

In data set [1], `COC(=O)c1sc2cc(-c3cc(OC)cc(OC)c3)cnc2c1N` had a GI50 of 125 µM. The GI50 at 72 h in data set [2] stood at 25 µM.

For `COC(=O)c1sc2cc(C#Cc3ccccc3OC)cnc2c1N`, in data set [1], the GI50 was more than 125 µM. In data set [2], this compound gave a GI50 at 72 h of 121 µM.

Turning to `COC(=O)c1sc2cc(C#Cc3cccc(N)c3)cnc2c1N`, the outcome in data set [3], in data set [4] and in data set [5] was Active. In addition, halving of growth in data set [1] (GI50) required 1.2 µM. Further, in data set [2], the 50% growth inhibitory concentration (GI50) at 72 h is more than 125 µM.

`COC(=O)c1sc2cc(C#Cc3ccccn3)cnc2c1N` came in with a concentration for 50% growth inhibition (GI50) in data set [1] of 75.7 µM. The GI50 at 72 h in data set [2] was 56.9 µM.

In the case of `COC(=O)c1sc2cc(-c3ccc(C#N)cc3)cnc2c1N`, in data set [1], the concentration for 50% growth inhibition (GI50) was more than 125 µM. This compound showed a GI50 at 72 h in data set [2] of 96.7 µM.

Compound `COC(=O)c1sc2cc(C#Cc3ccccc3N)cnc2c1N` displayed a GI50 in data set [1] of more than 125 µM. Also, the 50% growth inhibitory concentration (GI50) at 72 h in data set [2] is more than 125 µM.

With `Cc1c2ccncc2c(C)c2c1[nH]c1ccccc12` [ELLIPTECINE], the 50% growth inhibitory concentration (GI50) in data set [1] amounted to 2.9 µM. This compound also came in with a GI50 at 72 h in data set [2] of 3.3 µM.

With `COC(=O)c1sc2cc(-c3ccc(OC)cc3)cnc2c1N`, the 50% growth inhibitory concentration (GI50) in data set [1] is more than 125 µM. In addition, the GI50 at 72 h in data set [2] is more than 125 µM.

Compound `COC(=O)c1sc2cc(-c3cnc4ccccc4c3)cnc2c1N` displayed a 50% growth inhibitory concentration (GI50) in data set [1] of more than 125 µM. Further, it took 32.5 µM to inhibit growth in data set [2] by half (GI50 at 72 h).

In the case of `COC(=O)c1sc2cc(C#Cc3ccsc3)cnc2c1N`, growth in data set [1] was halved (GI50) at 30 µM. In data set [2], this compound returned a GI50 at 72 h of 30.7 µM.

Source of the values: ChEMBL document CHEMBL1914318, “Anti-hepatocellular carcinoma activity using human HepG2 cells and hepatotoxicity of 6-substituted methyl 3-aminothieno[3,2-b]pyridine-2-carboxylate derivatives: in vitro evaluation, cell cycle analysis and QSAR studies” (Eur J Med Chem, 2011).
